The first assay has as its target DCN1-UBC12 interaction (Homo sapiens (Human), UniProt Q96GG9). In words: biochemical. The assay is classed as binding. Particulars: TR-FRET IC50. (Time-resolved FRET reads energy transfer from a long-lived donor to a nearby acceptor.)
Chain of DCN1-UBC12 interaction (Q96GG9 60-248 limits assumed): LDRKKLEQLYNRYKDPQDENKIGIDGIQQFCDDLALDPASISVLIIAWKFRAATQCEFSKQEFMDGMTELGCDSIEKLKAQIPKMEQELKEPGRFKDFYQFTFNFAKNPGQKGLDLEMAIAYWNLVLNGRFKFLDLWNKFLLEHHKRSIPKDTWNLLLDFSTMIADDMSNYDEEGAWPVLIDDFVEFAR
For `CCCC(C)N1CCC(N(Cc2ccccc2)C(=O)Nc2cccc(Cl)c2)CC1` (stereo not drawn) [A35], it took 0.203 µM to reach half-maximal inhibition (IC50).

Staying with this assay, now noted: Table 4, commercial compounds; read-out: TR-FRET IC50.
On to `COc1cccc(NC(=O)C2CCN(C(=O)c3cccc(F)c3)CC2)c1` [C43], for which the IC50 (usually the concentration that inhibits the measured activity by half) was greater than 67.6 µM. As for `O=C(Nc1cccc(C(F)(F)F)c1)C1CCN(C(=O)c2ccc(F)cc2)CC1` [C2], the IC50 stood at 8.84 µM. Same read-out and setting: to `O=C(Nc1ccc(F)c(Cl)c1)C1CCN(C(=O)c2ccc(F)cc2)CC1` [C18] belongs greater than 67.6 µM; to `Cc1ccccc1/C=C/C(=O)N1CCC(C(=O)Nc2ccc3c(c2)OCO3)CC1` [C61], greater than 67.6 µM. Same read-out and setting: to `O=C(Nc1ccc(Cl)c(C(F)(F)F)c1)C1CCN(C(=O)c2ccc(F)cc2)CC1` [C20] belongs greater than 67.6 µM; to `COc1ccc(NC(=O)C2CCN(C(=O)c3cnn(-c4ccccc4)c3-n3cccc3)CC2)cc1` [C49], greater than 67.6 µM; to `CC1CN(C(=O)N2CCC(C(=O)Nc3cccc(Cl)c3)CC2)c2ccccc2O1` (stereo not drawn) [C51], greater than 67.6 µM. Same read-out and setting: to `O=C(Nc1cccc([N+](=O)[O-])c1)C1CCN(C(=O)c2cccc3ccccc23)CC1` [C64] belongs greater than 67.6 µM.

The same assay, now with this note: Table 6, commercial compounds; read-out: TR-FRET IC50.
Regarding `C=CCNC(=O)c1cnn(-c2ncc(C)c(-c3cccs3)n2)c1C` [E59], the IC50 was greater than 67.6 µM. On the same count and under the same terms, the result for `COCCN1CCN(C(=O)c2cnn(-c3ncc(C)c(-c4cccs4)n3)c2C2CC2)CC1` [E30] reads greater than 67.6 µM; that for `CCOC(=O)CCNC(=O)c1cnn(-c2ncc(C)c(-c3cccs3)n2)c1C` [E56], greater than 67.6 µM. Still for that read-out and setting: to `CC(C)c1c(C(=O)N2CCN(C(C)C)CC2)cnn1-c1nccc(-c2cccs2)n1` [E62] belongs greater than 77 µM; to `CCN(CC)CCN(CC)C(=O)c1cnn(-c2ncc3c(n2)-c2ccccc2CC3)c1C1CC1` [E9], 23.1 µM. Consider `Cc1cnc(-n2ncc(C(=O)N3CCN(C(C)C)CC3)c2C)nc1-c1cccs1` [E35], for which the IC50 was greater than 67.6 µM.

The same assay, now with this note: read-out: TR-FRET IC50.
On to `O=C(Nc1cccc(C(F)(F)F)c1)N(Cc1ccccc1)C1CC2CCC(C1)N2Cc1ccccc1` (stereo not drawn) [A105], for which the IC50 was 1.87 µM. Same read-out and setting: to `CCCC(C)N1CCC(N(Cc2ccccc2)C(=O)Nc2cccc(OCc3ccccc3)c2)CC1` (stereo not drawn) [A94] belongs 1.29 µM; to `COc1ccc(C(=O)N2CCC(NCc3ccc(C)cc3)CC2)cc1` [A194], greater than 10.3 µM.

For `CCCC(C)N1CCC(N(Cc2ccccc2)C(=O)Nc2ccc(C)nc2Br)CC1` (stereo not drawn) [A240], the IC50 was greater than 51.7 µM. On the same count and under the same terms, to `O=C(Nc1cccc(SC(F)(F)F)c1)NC1CCN(Cc2ccccc2)CC1` [B8] belongs 16.6 µM. On the same count and under the same terms, the result for `CCCC(C)N1CCC(N(Cc2ccccc2CNC(=O)CCl)C(=O)Nc2cccc(C(F)(F)F)c2)CC1` (stereo not drawn) [A24] reads 0.154 µM.

Regarding `COc1ccc(NC(=O)N(Cc2ccco2)C2CCN(C(C)=O)CC2)cc1` [B70], the IC50 was greater than 67.6 µM. For `CCCC(C)N1CCC(N(Cc2ccccc2)C(=O)Nc2cccc(N3CCOCC3)c2)CC1` (stereo not drawn) [A297], the IC50 was greater than 83.6 µM. Same read-out and setting: the result for `CCCC(C)N1CCC(N(Cc2ccccc2)C(=O)Nc2ccc(CC#N)cc2)CC1` (stereo not drawn) [A176] reads 13.7 µM; that for `CCCCCCc1ccc(NC(=O)N(Cc2ccccc2)C2CCN(C(C)CCC)CC2)cc1` (stereo not drawn) [A19], 0.116 µM; that for `O=C(c1ccc(Cl)cc1)N1CCC(c2nc3ccccc3s2)CC1` [D20], greater than 67.3 µM. The same measure, in the same setting: the result for `CCCC(C)N1CCC(N(Cc2ccccc2)C(=O)Nc2cccc(Cl)c2Cl)CC1` (stereo not drawn) [A103] reads 1.74 µM.

`CCCC(C)N1CCC(N(Cc2ccccc2)C(=O)Nc2c(C(C)C)cccc2C(C)C)CC1` (stereo not drawn) [A173]: the IC50 is 13.1 µM.

Take `CCCCN1CCC(CC(=O)OC)(NC(=O)Nc2cccc(C(F)(F)F)c2)CC1` [A254]: the IC50 was greater than 60.1 µM.

For `CCCC(C)N1CCC(N(Cc2ccccc2)C(=O)NCc2ccc(N)cc2)CC1` (stereo not drawn) [A233], the IC50 was greater than 39.4 µM. On to “1-(1-(2-Methylbenzyl)Piperidin-4-yl)-3-(3-(Trifluoromethyl)Phenyl)Urea [A137]”, for which the IC50 was 3.8 µM. The same measure, in the same setting: the result for `CCCC(C)N1CCC(N(CCNC(=O)CCl)C(=O)Nc2cccc(C(F)(F)F)c2)CC1` (stereo not drawn) [drawing 837] reads greater than 60 µM; that for `CCOc1ccccc1NC(=O)N(Cc1ccc(C)o1)C1CCN(C(C)=O)CC1` [B88], greater than 67.6 µM; that for `Cc1ccc(CN(C(=O)Nc2cc(F)ccc2F)C2CCN(Cc3ccccc3)CC2)o1` [B93], greater than 67.6 µM. The same measure, in the same setting: the result for `Cc1cccc(CN(C(=O)Nc2cccc(C(F)(F)F)c2)C2CCN(Cc3ccccc3)CC2)n1` [B5] reads 5.64 µM; that for `Cc1ccc(CN(C(=O)Nc2ccccc2Br)C2CCN(Cc3ccccc3)CC2)o1` [B91], greater than 67.6 µM. Same read-out and setting: to `Cc1ccccc1CN1CCC(NC(=O)Nc2cccc(C(F)(F)F)c2)CC1` [A135] belongs 3.35 µM; to `CCCC(C)N1CCC(N(Cc2ccccc2)C(=O)Nc2cccc(C(=O)OC)c2)CC1` (stereo not drawn) [A81], 0.88 µM. With `CC(=O)N1CCC(N(Cc2ccco2)C(=O)Nc2ccccc2C(F)(F)F)CC1` [B76], the IC50 is greater than 67.6 µM. Same read-out and setting: to `CCCC(C)N1CCC(N(Cc2cccc(CNC(=O)CCl)c2)C(=O)Nc2cccc(C(F)(F)F)c2)CC1` (stereo not drawn) [A256] belongs greater than 60.4 µM.

As for `C=CC(=O)NCCN(C(=O)Nc1cccc(C(F)(F)F)c1)C1CCN(C(C)CCC)CC1` (stereo not drawn) [A187], the IC50 came out at 33.8 µM. On the same count and under the same terms, the result for `CC(=O)N1CCC(N(Cc2ccco2)C(=O)Nc2cccc(C(F)(F)F)c2)CC1` [B10] reads 20.2 µM; that for `CC(=O)N1CCC(N(C(=O)Nc2cccc(C(F)(F)F)c2)C(C)C)CC1` [B65], greater than 67.6 µM. On the same count and under the same terms, to `CN(C)c1ccc(CN2CCC(N(Cc3ccccc3)C(=O)Nc3cc(F)cc(C(F)(F)F)c3)CC2)cc1` [A209] belongs greater than 21.5 µM.

Take `CC(=O)N1CCC(N(Cc2ccco2)C(=O)Nc2cccc(C)c2)CC1` [B72]: the IC50 was greater than 67.6 µM. Turning to `COc1cc(CN2CCC(NC(=O)Nc3ccccc3)CC2)cc(OC)c1OC` [B45], the IC50 was greater than 65.5 µM. Still for that read-out and setting: the result for `CCCC(C)N1CCC(N(Cc2ccccc2)C(=O)Nc2c(C)cccc2C)CC1` (stereo not drawn) [A259] reads greater than 62.4 µM. As for `CCCC(C)N1CCC(N(Cc2ccccc2)C(=O)Nc2cccc(OC)c2)CC1` (stereo not drawn) [A131], the IC50 amounted to 3.15 µM. Still for that read-out and setting: to `N#Cc1cccc(CN2CCC(N(Cc3ccccc3)C(=O)Nc3cc(F)cc(C(F)(F)F)c3)CC2)c1` [A230] belongs greater than 28.7 µM; to `CCCC(C)N1CCC(N(Cc2ccccc2)C(=O)Nc2cccc(S(F)(F)(F)(F)F)c2)CC1` (stereo not drawn) [A25], 0.155 µM. On the same count and under the same terms, to `FC(F)(F)c1cccc(CN2CCN(Cc3nc4ccccc4[nH]3)CC2)c1` [B28] belongs greater than 46.3 µM; to `CCCC(C)N1CCC(N(Cc2ccccc2)C(=O)Nc2cc(Cl)ccc2F)CC1` (stereo not drawn) [A159], 7.72 µM; to `O=C(Nc1ccc2c(c1)OCO2)NC1CCN(Cc2ccccc2)CC1` [B22], greater than 103 µM. Take `COc1ccccc1N1CCN(CC(=O)Nc2cccc(C(F)(F)F)c2)CC1` [B107]: the IC50 is greater than 72.3 µM. Still for that read-out and setting: to `CCCC(C)N1CCC(N(Cc2ccccc2)C(=O)Nc2ccc(O)cc2)CC1` (stereo not drawn) [A308] belongs greater than 98.6 µM. Same read-out and setting: to `O=C(Nc1ccc(F)cc1)NC1CCN(Cc2ccccc2)CC1` [B43] belongs greater than 64.5 µM.

Take `COc1ccc(C(=O)NCC(=O)N2CCC(c3nc4ccccc4s3)CC2)cc1OC` [D26]: the IC50 is greater than 67.6 µM. Same read-out and setting: the result for `O=C(c1ccc(F)cc1)N1CCC(c2nc3ccccc3s2)CC1` [D15] reads greater than 46.2 µM; that for `O=C(c1ccccc1Br)N1CCC(c2nc3ccccc3s2)CC1` [D8], 19.8 µM. For the compound `CCN1CCC(N(Cc2ccco2)C(=O)Nc2ccc(OC)cc2)CC1` [B79], the IC50 is greater than 67.6 µM. Same read-out and setting: to `CCCC(C)N1CCC(N(Cc2ccccc2)C(=O)Nc2ccc(Oc3ccncc3)cc2)CC1` (stereo not drawn) [A69] belongs 0.567 µM; to `CCCC(C)N1CCC(N(Cc2ccccc2)C(=O)Nc2ccc(I)cc2)CC1` (stereo not drawn) [A4], 0.035 µM; to `O=C(Nc1ccc(C(=O)N2CCOCC2)cc1)Nc1cccc(C(F)(F)F)c1` [B46], greater than 66.3 µM.

As for `CN1CC(NC(=O)NC2CCN(Cc3ccccc3)CC2)c2ccccc2C1=O` (stereo not drawn) [B17], the IC50 amounted to 55.6 µM. On the same count and under the same terms, the result for `CCCC(C)N1CCC(N(Cc2ccccc2)C(=O)Nc2ccc(Cl)cc2F)CC1` (stereo not drawn) [A91] reads 1.19 µM; that for `O=C(Nc1ccccc1C(F)(F)F)NC1CCN(Cc2ccccc2)CC1` [B103], greater than 70.7 µM; that for `COc1ccccc1NC(=O)N(Cc1ccc(C)o1)C1CCN(Cc2ccccc2)CC1` [B90], greater than 67.6 µM. Consider “1-Benzyl-1-(1-(Pentan-2-yl)Piperidin-4-yl)-3-(3-(Trifluoromethyl)Phenyl)Urea [A293]”, for which the IC50 is greater than 78.2 µM.

In the case of `O=C(Nc1cccc(Cl)c1)NC1CCN(Cc2ccccc2)CC1` [B110], the IC50 is greater than 73.1 µM.

Take `Cc1ccc2[nH]c(C3CCN(Cc4cccc(C(F)(F)F)c4)CC3)nc2c1` [B19]: the IC50 was less than 0.004 µM. Same read-out and setting: the result for `C#CCCCN1CCC(N(Cc2ccccc2NC(=O)/C=C/C)C(=O)Nc2cccc(C(F)(F)F)c2)CC1` [A195] reads greater than 100 µM. Still for that read-out and setting: to `CCCC(C)N1CCC(N(Cc2cccc(NC(=O)CCl)c2)C(=O)Nc2cccc(C(F)(F)F)c2)CC1` (stereo not drawn) [A17] belongs 0.0951 µM; to `CCCC(C)N1CCC(N(Cc2ccccc2)C(=O)Nc2ccn(-c3ccc(Cl)cc3)n2)CC1` (stereo not drawn) [A153], 6.47 µM; to `CCCCN1C(C)(C)CC(N(Cc2ccccc2)C(=O)Nc2cccc(C(F)(F)F)c2)CC1(C)C` [A188], 34.3 µM. Regarding `CCCC(C)N1CCC(N(Cc2ccccc2)C(=O)Nc2cccc(C(C)(C)C)c2)CC1` (stereo not drawn) [A140], the IC50 was found to be 4.2 µM. The same measure, in the same setting: the result for `C=CS(=O)(=O)Nc1cccc(CN(C(=O)Nc2cccc(C(F)(F)F)c2)C2CCN(C(C)CCC)CC2)c1` (stereo not drawn) [A27] reads 0.165 µM. Same read-out and setting: to `O=C(NCCN1CCN(Cc2ccccc2C(F)(F)F)CC1)Nc1ccccc1` [B48] belongs greater than 67 µM; to `C=CC(=O)NCCN(C(=O)Nc1cccc(C(F)(F)F)c1)C1CCN(C(C)CCC)CC1` (stereo not drawn) [drawing 835], 33.8 µM; to `CC(=O)N1CCC(N(Cc2ccco2)C(=O)Nc2ccc(Br)cc2)CC1` [B73], greater than 67.6 µM. As to `CCCN1CCC(N(CCC(C)C)C(=O)Nc2cccc(C(F)(F)F)c2)CC1` [A130, 1-Isopentyl-1-(1-Propylpiperidin-4-yl)-3-(3-(Trifluoromethyl)Phenyl)Urea], the IC50 was found to be 2.96 µM. Still for that read-out and setting: to `O=C(Nc1ccc(C(=O)N2CCCC2)cc1)Nc1cccc(C(F)(F)F)c1` [B112] belongs greater than 73.5 µM.

(Values after patent US11116757B2 (priority 2015, dated 2021).)
